# Values of other authors as cited in patent publication US20070203078A1, “METHOD FOR THE TREATMENT AND DIAGNOSIS OF CERTAIN PSYCHIATRIC DISORDERS RELATED TO THE MENSTRUAL CYCLE” (THE REGENTS OF THE UNIVERSITY OF CALIFORNIA, priority 2004, published 2007).
# Biological target: T1, δ subunit-containing GABAARs (Mus musculus, UniProt P22933)
# T1 construct: tonic conductance mediated by δ subunit-containing GABAARs in several classes of neurons; host or cells: neurons (cerebellar granule cells, dentate gyrus granule cells and interneurons are named)
# T1 sequence (P22933 25-449): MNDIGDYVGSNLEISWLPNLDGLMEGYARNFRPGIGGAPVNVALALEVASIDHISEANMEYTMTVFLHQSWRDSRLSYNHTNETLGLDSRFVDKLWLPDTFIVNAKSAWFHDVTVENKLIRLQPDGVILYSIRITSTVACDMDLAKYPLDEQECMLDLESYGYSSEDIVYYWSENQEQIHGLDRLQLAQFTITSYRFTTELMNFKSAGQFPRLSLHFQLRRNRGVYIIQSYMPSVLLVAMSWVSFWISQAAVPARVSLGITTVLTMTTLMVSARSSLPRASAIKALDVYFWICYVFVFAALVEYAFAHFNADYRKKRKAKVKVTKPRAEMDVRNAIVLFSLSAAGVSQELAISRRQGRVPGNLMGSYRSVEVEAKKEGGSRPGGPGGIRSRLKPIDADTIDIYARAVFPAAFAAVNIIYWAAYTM
# Conditions: THDOC in the physiological range (10 nM)
smiles,measurement,setting,value
C[C@]12CC[C@@H](O)C[C@H]1CC[C@@H]1[C@@H]2CC[C@]2(C)[C@@H](C(=O)CO)CC[C@@H]12 [THDOC],effect on synaptic currents,,no effect
same,effect on tonic conductance mediated by δ subunit-containing GABAARs,several classes of neurons,significantly potentiate
